Measured values reported in patent US20140348819A1, “Methods of Treating Cancer” (Dana-Farber Cancer Institute, Inc., priority 2011, published 2014).

Key:
Format in all cases: cell-based, human
[1] = tested on: six V600E BRAF melanoma cell lines; assay: Screening of recombinant RTK ligands for ability to confer resistance to BRAFi (PLX4720) or MEKi (PD184352) (Table 4); set-up: ability of recombinant RTK ligand to confer resistance / ability of recombinant RTK ligand to confer resistance (screening value): scale not given here
Outline: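 Resistance to BRAFi (PLX4720) or MEKi (PD184352) was tested in six V600E BRAF melanoma lines given one of 22 recombinant RTK ligands. For a subset of RTKs, activation was checked by high-throughput tyrosine kinase phosphorylation profiling and western blot.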

pERK/pAKT = assay: High-throughput western analysis of pERK/pAKT re-activation by RTK ligands under BRAFi/MEKi
[2] = tested on: V600E BRAF melanoma cell lines; assay: HGF-induced / stromal resistance of melanoma cell lines to BRAF, MEK and AKT inhibitors and its reversal

Substance: HGF: paracrine cellular growth factor, ligand of the RTK c-MET
- ability of recombinant RTK ligand to confer resistance ([1]; A2058, PD184352 - 1 uM, ligand 0.4 ng/ml): 1.02
- ability of recombinant RTK ligand to confer resistance ([1]; A2058, PD184352 - 1 uM, ligand 1.6 ng/ml): 1.01
- ability of recombinant RTK ligand to confer resistance ([1]; A2058, PD184352 - 1 uM, ligand 6.25 ng/ml): 1.10
- ability of recombinant RTK ligand to confer resistance ([1]; A2058, PD184352 - 1 uM, ligand 25 ng/ml): 1.10
- ability of recombinant RTK ligand to confer resistance ([1]; A2058, PD184352 - 1 uM, ligand 100 ng/ml): 1.66
- ability of recombinant RTK ligand to confer resistance ([1]; A2058, PLX4720 - 2 uM, ligand 0.4 ng/ml): 1.03
- ability of recombinant RTK ligand to confer resistance ([1]; A2058, PLX4720 - 2 uM, ligand 1.6 ng/ml): 1.02
- ability of recombinant RTK ligand to confer resistance ([1]; A2058, PLX4720 - 2 uM, ligand 6.25 ng/ml): 1.12
- ability of recombinant RTK ligand to confer resistance ([1]; A2058, PLX4720 - 2 uM, ligand 25 ng/ml): 1.32
- ability of recombinant RTK ligand to confer resistance ([1]; A2058, PLX4720 - 2 uM, ligand 100 ng/ml): 1.49
- ability of recombinant RTK ligand to confer resistance ([1]; C32, PD184352 - 1 uM, ligand 0.4 ng/ml): 1.10
- ability of recombinant RTK ligand to confer resistance ([1]; C32, PD184352 - 1 uM, ligand 1.6 ng/ml): 1.08
- ability of recombinant RTK ligand to confer resistance ([1]; C32, PD184352 - 1 uM, ligand 6.25 ng/ml): 1.29
- ability of recombinant RTK ligand to confer resistance ([1]; C32, PD184352 - 1 uM, ligand 25 ng/ml): 1.08
- ability of recombinant RTK ligand to confer resistance ([1]; C32, PD184352 - 1 uM, ligand 100 ng/ml): 1.96
- ability of recombinant RTK ligand to confer resistance ([1]; C32, PLX4720 - 2 uM, ligand 0.4 ng/ml): 1.04
- ability of recombinant RTK ligand to confer resistance ([1]; C32, PLX4720 - 2 uM, ligand 1.6 ng/ml): 1.15
- ability of recombinant RTK ligand to confer resistance ([1]; C32, PLX4720 - 2 uM, ligand 6.25 ng/ml): 1.42
- ability of recombinant RTK ligand to confer resistance ([1]; C32, PLX4720 - 2 uM, ligand 25 ng/ml): 1.96
- ability of recombinant RTK ligand to confer resistance ([1]; C32, PLX4720 - 2 uM, ligand 100 ng/ml): 2.01
- ability of recombinant RTK ligand to confer resistance ([1]; Colo 829, PD184352 - 1 uM, ligand 0.4 ng/ml): 0.96
- ability of recombinant RTK ligand to confer resistance ([1]; Colo 829, PD184352 - 1 uM, ligand 1.6 ng/ml): 0.99
- ability of recombinant RTK ligand to confer resistance ([1]; Colo 829, PD184352 - 1 uM, ligand 6.25 ng/ml): 1.12
- ability of recombinant RTK ligand to confer resistance ([1]; Colo 829, PD184352 - 1 uM, ligand 25 ng/ml): 1.41
- ability of recombinant RTK ligand to confer resistance ([1]; Colo 829, PD184352 - 1 uM, ligand 100 ng/ml): 1.89
- ability of recombinant RTK ligand to confer resistance ([1]; Colo 829, PLX4720 - 2 uM, ligand 0.4 ng/ml): 1.00
- ability of recombinant RTK ligand to confer resistance ([1]; Colo 829, PLX4720 - 2 uM, ligand 1.6 ng/ml): 1.02
- ability of recombinant RTK ligand to confer resistance ([1]; Colo 829, PLX4720 - 2 uM, ligand 6.25 ng/ml): 1.14
- ability of recombinant RTK ligand to confer resistance ([1]; Colo 829, PLX4720 - 2 uM, ligand 25 ng/ml): 1.35
- ability of recombinant RTK ligand to confer resistance ([1]; Colo 829, PLX4720 - 2 uM, ligand 100 ng/ml): 1.71
- ability of recombinant RTK ligand to confer resistance ([1]; G-361, PD184352 - 1 uM, ligand 0.4 ng/ml): 1.17
- ability of recombinant RTK ligand to confer resistance ([1]; G-361, PD184352 - 1 uM, ligand 1.6 ng/ml): 1.03
- ability of recombinant RTK ligand to confer resistance ([1]; G-361, PD184352 - 1 uM, ligand 6.25 ng/ml): 1.19
- ability of recombinant RTK ligand to confer resistance ([1]; G-361, PD184352 - 1 uM, ligand 25 ng/ml): 1.68
- ability of recombinant RTK ligand to confer resistance ([1]; G-361, PD184352 - 1 uM, ligand 100 ng/ml): 1.10
- ability of recombinant RTK ligand to confer resistance ([1]; G-361, PLX4720 - 2 uM, ligand 0.4 ng/ml): 0.97
- ability of recombinant RTK ligand to confer resistance ([1]; G-361, PLX4720 - 2 uM, ligand 1.6 ng/ml): 1.03
- ability of recombinant RTK ligand to confer resistance ([1]; G-361, PLX4720 - 2 uM, ligand 6.25 ng/ml): 1.24
- ability of recombinant RTK ligand to confer resistance ([1]; G-361, PLX4720 - 2 uM, ligand 25 ng/ml): 2.27
- ability of recombinant RTK ligand to confer resistance ([1]; G-361, PLX4720 - 2 uM, ligand 100 ng/ml): 9.24
- ability of recombinant RTK ligand to confer resistance ([1]; SK-MEL-5, PD184352 - 1 uM, ligand 0.4 ng/ml): 0.99
- ability of recombinant RTK ligand to confer resistance ([1]; SK-MEL-5, PD184352 - 1 uM, ligand 1.6 ng/ml): 1.17
- ability of recombinant RTK ligand to confer resistance ([1]; SK-MEL-5, PD184352 - 1 uM, ligand 6.25 ng/ml): 1.16
- ability of recombinant RTK ligand to confer resistance ([1]; SK-MEL-5, PD184352 - 1 uM, ligand 25 ng/ml): 1.81
- ability of recombinant RTK ligand to confer resistance ([1]; SK-MEL-5, PD184352 - 1 uM, ligand 100 ng/ml): 2.32
- ability of recombinant RTK ligand to confer resistance ([1]; SK-MEL-5, PLX4720 - 2 uM, ligand 0.4 ng/ml): 0.98
- ability of recombinant RTK ligand to confer resistance ([1]; SK-MEL-5, PLX4720 - 2 uM, ligand 1.6 ng/ml): 1.37
- ability of recombinant RTK ligand to confer resistance ([1]; SK-MEL-5, PLX4720 - 2 uM, ligand 6.25 ng/ml): 1.35
- ability of recombinant RTK ligand to confer resistance ([1]; SK-MEL-5, PLX4720 - 2 uM, ligand 25 ng/ml): 1.95
- ability of recombinant RTK ligand to confer resistance ([1]; SK-MEL-5, PLX4720 - 2 uM, ligand 100 ng/ml): 1.93
- ability of recombinant RTK ligand to confer resistance ([1]; SK-MEL-28, PD184352 - 1 uM, ligand 0.4 ng/ml): 1.11
- ability of recombinant RTK ligand to confer resistance ([1]; SK-MEL-28, PD184352 - 1 uM, ligand 1.6 ng/ml): 1.16
- ability of recombinant RTK ligand to confer resistance ([1]; SK-MEL-28, PD184352 - 1 uM, ligand 6.25 ng/ml): 1.22
- ability of recombinant RTK ligand to confer resistance ([1]; SK-MEL-28, PD184352 - 1 uM, ligand 25 ng/ml): 1.46
- ability of recombinant RTK ligand to confer resistance ([1]; SK-MEL-28, PD184352 - 1 uM, ligand 100 ng/ml): 1.87
- ability of recombinant RTK ligand to confer resistance ([1]; SK-MEL-28, PLX4720 - 2 uM, ligand 0.4 ng/ml): 1.05
- ability of recombinant RTK ligand to confer resistance ([1]; SK-MEL-28, PLX4720 - 2 uM, ligand 1.6 ng/ml): 1.42
- ability of recombinant RTK ligand to confer resistance ([1]; SK-MEL-28, PLX4720 - 2 uM, ligand 6.25 ng/ml): 1.55
- ability of recombinant RTK ligand to confer resistance ([1]; SK-MEL-28, PLX4720 - 2 uM, ligand 25 ng/ml): 3.85
- ability of recombinant RTK ligand to confer resistance ([1]; SK-MEL-28, PLX4720 - 2 uM, ligand 100 ng/ml): 2.20
- ability of RTK ligand to confer primary resistance ([1]; six V600E BRAF melanoma cell lines, BRAFi (PLX4720) or MEKi (PD184352)): confer substantial primary resistance
- activation of pAKT by HGF over time (pERK/pAKT; under BRAFi (PLX4720)): sustained over time
- reactivation of pERK by HGF (pERK/pAKT; under BRAFi (PLX4720)): substantially reactivate pERK
- re-activation of pERK/pAKT (pERK/pAKT; under BRAFi (PLX4720), after 1 hour of cytokine treatment, six V600E BRAF melanoma cell lines): reactivate both ERK and AKT
- reactivation of pERK by HGF (pERK/pAKT; under MEKi (PD184352)): not under MEKi
- activation of pAKT by RTK ligands (pERK/pAKT; under PLX4720, FIG. 10B): activates AKT in every cell lines tested
- duration of ERK/AKT activation (pERK/pAKT; under PLX4720 treatment): long lasting
- HGF-conferred resistance, BRAFi versus MEKi ([2]; FIG. 11C): better resistance to BRAFi than MEKi
- HGF-conferred resistance ([2]; combination of BRAFi and AKTi (MK-2206)): confers resistance
